Test results as given in article PMC5403950, “Mechanism Underlying the Reversal of Drug Resistance in P-Glycoprotein-Expressing Leukemia Cells by Pinoresinol and the Study of a Derivative” (Frontiers in Pharmacology, 2017).
pIC50: −log10 of the molar value. Where “and” joins values, the source holds several entries; their conditions need not be identical. Identical values can stand only once. Entries after “also recorded” stand apart in the source; their conditions may differ. Counter-ions that a name gives are not always drawn. Like-named read-outs stand apart in the source and are kept apart here.

Key:
P-gp [1] = system: P-gp; parameters: method as in Tamaki et al., 2008; conditions: applied at 50 and 100 μM; ref Tamaki et al., 2008; cited from earlier work
K562 cells [2] = assay: Multidrug resistance reversal assay (MTT) with DOX, sensitive parental line; format: cell-based, human; conditions: for Effect on DOX sensitivity in K562: compound at highest non-toxic concentration (Table 1)
Procedure: (§1) Briefly, 5 × 10^4 Lucena 1 cells per well were seeded in 96-well plates containing RPMI-1640 medium in the presence of DOX alone or in combination with the tested compounds dissolved in ethanol or acetonitrile as appropriate. DOX was added to reach final concentrations of 0.05–431 μM. The compounds were assayed at the highest non-toxic concentration observed in both cell lines (cytotoxicity ≤ 20%, Cytotoxicity (%) = [1-(Optical density treatment-Optical density DMSO)/(Optical density control-Optical density DMSO)] x 100, determined by MTT proliferation assay (Joray et al., [2015]); maximum concentration tested 40 μg mL^−1). Following the primary screening, compounds 14 and 16 (dissolved in ethanol) were tested at serial dilutions. […] Subsequently, the supernatants were removed and replaced with 100 μL DMSO to solubilize the resulting purple formazan crystals produced from metabolically viable cells. Absorbance was measured with an iMark micro-plate reader (Bio-Rad, USA) at 595 nm.
(§2) The same reversal assay was performed in K562 cells, in order to discard a decrease in the IC50 of DOX due to effects other than P-gp inhibition. The reversal fold (RF) values for the tested compounds, which indicate their capacity to reduce resistance to DOX, were calculated by dividing the IC50 of DOX alone by the IC50 of DOX in the presence of the tested compounds (Xu et al., [2014]).

Lucena 1 cells [3] = assay: Multidrug resistance reversal assay (MTT) with DOX; format: cell-based, human; conditions: for Effect on DOX toxicity in Lucena 1: compound at highest non-toxic concentration (Table 1)
Procedure: as §1, §2

Lucena 1 cells [4] = assay: Reversal assay (MTT) with VLB; format: cell-based, human
Procedure: Subsequently, the supernatants were removed and replaced with 100 μL DMSO to solubilize the resulting purple formazan crystals produced from metabolically viable cells.
The same reversal assay was performed in K562 cells, in order to discard a decrease in the IC50 of DOX due to effects other than P-gp inhibition.

K562 cells [5] = assay: Reversal assay (MTT) with VLB, sensitive parental line; format: cell-based, human
[6] = system: KB-C2 cells overexpressing P-gp; parameters: method as in Nabekura et al., 2008; conditions: ref Nabekura et al., 2008; cited from earlier work
P-gp [7] = assay: Surface expression of P-gp (FITC anti-human P-gp, flow cytometry), K562; format: cell-based; conditions: 14 at 112 μM, 24 and 48 h
Procedure: (§3) To determine the effect of 14 on P-gp surface expression, Lucena 1 or K562 cells at a density of 5 × 10^4 cells mL^−1 were incubated in the presence of 14, dissolved in ethanol at 112 μM (maximum non-cytotoxic concentration, in order to ensure the presence of the effect) or 1% ethanol (control) for 24 and 48 h. Then, cells were washed with cold PBS and labeled for 30 min at 4°C in the dark with FITC-conjugated mouse anti-human P-gp antibody, which binds to an external epitope of P-gp, according to the manufacturer's instructions. Finally, cells were washed and suspended with ice-cold PBS and fluorescence intensity was determined in 10,000 individual cells by FACScan flow cytometry. FITC fluorescence was measured at an excitation wavelength of 488 nm and emitted light was collected with a 530/30 nm bandpass filter.

P-gp [8] = target: T1, P-gp (Homo sapiens, UniProt P08183); assay: Doxorubicin efflux assay (flow cytometry); format: cell-based; parameters: Lucena 1 was chosen as a well-characterized resistant cell line in which P-gp overexpression is the exclusive mechanism of acquired resistance; endogenous in cells; host or cells: Lucena 1 (drug-selected, P-gp overexpressing) and parental K562 human CML cells; conditions: Lucena 1
Procedure: […]. […] After washing, cells were incubated for 30 min with 14. […] Cells were then washed with ice-cold PBS and the intracellular DOX-associated MFI of 50,000 individual cells was determined by flow cytometry as previously described.

K562 cells [9] = assay: Doxorubicin efflux assay (flow cytometry), K562; format: cell-based, human; conditions: 14 at 112 μM, verapamil 30 μM
Procedure: Cells were then washed with ice-cold PBS and the intracellular DOX-associated MFI of 50,000 individual cells was determined by flow cytometry as previously described.

K562 cells [10] = assay: Doxorubicin intracellular accumulation assay (flow cytometry), K562; format: cell-based, human; conditions: up to the maximum concentration evaluated
Description: […]. […] Viability controls were included in all the experiments.

P-gp [11] = target: T1, P-gp; assay: P-gp ATPase activity ([…] ATPase assay kit, Sf9 membranes); format: biochemical; parameters: host or cells: Spodoptera frugiperda Sf9 cells (membrane preparation); conditions: for Maximum stimulation of P-gp-ATPase activity: activation assay, at 66.7 μM, relative to maximum activation by verapamil
Procedure: The ATPase reaction was subsequently stopped and the inorganic phosphate (Pi) produced was measured colorimetrically at 630 nm.
All experiments were performed in the absence or presence of 1.2 mM of sodium orthovanadate, an ABC transporter-related ATPase inhibitor, in order to measure the vanadate-sensitive portion of the total ATPase activity. […] Membranes from Sf9 cells expressing defective P-gp were used as controls.

P-gp [12] = target: T1, P-gp; conditions: Lucena 1; for % of inhibition related to verapamil (DOX accumulation): 112 μM
P-gp [13] = assay: Surface expression of P-gp (FITC anti-human P-gp, flow cytometry), Lucena 1; format: cell-based; conditions: 14 at 112 μM, 48 h
Procedure: as §3

P-gp [14] = target: T1, P-gp; assay: Rhodamine 123 efflux assay (flow cytometry); format: cell-based; parameters: Lucena 1 was chosen as a well-characterized resistant cell line in which P-gp overexpression is the exclusive mechanism of acquired resistance; endogenous in cells; host or cells: Lucena 1 (drug-selected, P-gp overexpressing) and parental K562 human CML cells; conditions: Lucena 1; 14 at 112 μM; 30 min efflux
K562 cells [15] = assay: Rhodamine 123 efflux assay (flow cytometry), K562; format: cell-based, human; conditions: 14 at 112 μM
Procedure: Rho 123, a P-gp fluorescent substrate, is frequently employed as an indicator of P-gp activity and it was therefore used in an additional efflux study. […] Subsequently, cells were incubated with 500 ng mL^−1 of Rho 123 for 30 min. […] After washing twice with cold PBS, the amount of Rho 123 remaining in 10,000 individual cells after the efflux period was quantified by FACScan flow cytometry. Excitation was performed with a laser operating at 488 nm and the emitted fluorescence was collected through a 530/30 nm pass filter.

[16] = 14 at 112 μM, verapamil as reference

T1 sequence (P08183 whole entry): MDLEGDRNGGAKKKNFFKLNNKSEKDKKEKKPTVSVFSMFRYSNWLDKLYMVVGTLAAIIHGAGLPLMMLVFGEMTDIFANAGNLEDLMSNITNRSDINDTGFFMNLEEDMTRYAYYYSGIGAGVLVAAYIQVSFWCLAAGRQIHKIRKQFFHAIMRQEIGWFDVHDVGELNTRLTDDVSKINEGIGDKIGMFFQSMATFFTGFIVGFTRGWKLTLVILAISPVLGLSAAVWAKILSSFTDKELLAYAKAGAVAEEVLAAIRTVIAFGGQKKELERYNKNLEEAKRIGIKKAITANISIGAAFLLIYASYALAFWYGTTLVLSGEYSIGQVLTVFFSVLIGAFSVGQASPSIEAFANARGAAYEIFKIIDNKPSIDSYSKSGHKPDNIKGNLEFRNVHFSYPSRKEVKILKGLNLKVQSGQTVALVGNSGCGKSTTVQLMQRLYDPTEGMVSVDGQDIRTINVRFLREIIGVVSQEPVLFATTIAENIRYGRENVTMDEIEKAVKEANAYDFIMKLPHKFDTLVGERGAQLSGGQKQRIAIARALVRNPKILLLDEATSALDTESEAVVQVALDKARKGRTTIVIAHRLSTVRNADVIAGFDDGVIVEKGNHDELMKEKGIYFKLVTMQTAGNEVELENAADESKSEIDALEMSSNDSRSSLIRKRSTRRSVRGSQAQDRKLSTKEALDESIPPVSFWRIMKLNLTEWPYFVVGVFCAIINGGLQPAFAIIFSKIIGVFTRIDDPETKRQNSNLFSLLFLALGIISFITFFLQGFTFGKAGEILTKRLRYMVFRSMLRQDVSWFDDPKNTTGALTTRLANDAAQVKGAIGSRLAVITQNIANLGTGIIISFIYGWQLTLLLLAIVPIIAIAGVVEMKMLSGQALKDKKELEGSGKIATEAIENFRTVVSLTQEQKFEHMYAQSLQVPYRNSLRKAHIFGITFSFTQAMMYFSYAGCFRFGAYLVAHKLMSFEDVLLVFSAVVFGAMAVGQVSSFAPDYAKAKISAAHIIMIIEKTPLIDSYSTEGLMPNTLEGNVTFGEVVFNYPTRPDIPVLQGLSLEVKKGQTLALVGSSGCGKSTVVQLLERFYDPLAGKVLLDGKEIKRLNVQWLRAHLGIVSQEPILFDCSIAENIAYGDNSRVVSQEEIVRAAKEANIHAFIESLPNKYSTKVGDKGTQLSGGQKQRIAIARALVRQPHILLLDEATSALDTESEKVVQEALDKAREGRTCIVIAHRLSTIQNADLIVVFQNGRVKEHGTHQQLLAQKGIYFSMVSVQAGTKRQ
T1 sequence (P08183 whole entry): as above

Compound: (+)-pinoresinol [14 (+)-pinoresinol]
- Intracellular accumulation of calcein-AM (P-gp [1]): increased the intracellular accumulation of calcein-AM

Compound: O=C(/C=C/c1ccccc1)c1ccc(O)cc1O [Compound 6, 2′,4′-dihydroxychalcone]
- Effect on DOX sensitivity in K562 (K562 cells [2]): caused a decrease in DOX IC50

Compound: COc1cccc2c1C(=O)c1c(O)c3c(c(O)c1C2=O)C[C@@](O)(C(=O)CO)C[C@@H]3O[C@H]1C[C@H](N)[C@H](O)[C@H](C)O1 [DOX, Doxorubicin hydrochloride, reference compound]
- pIC50 (Lucena 1 cells [3]; Homo sapiens, Lucena 1, MTT 48 h, 95% confidence limits in brackets, read-out: IC50 of DOX alone): 4.39
- Resistance of Lucena 1 to DOX relative to K562 (Lucena 1 cells [3]; ratio of DOX IC50 values): 35 fold
- pIC50 (K562 cells [2]; Homo sapiens, K562, MTT 48 h, 95% confidence limits in brackets, read-out: IC50 of DOX alone): 5.94

Compound: O=C1C[C@@H](c2ccc(O)cc2)Oc2cc(O)cc(O)c21 [Compound 8, naringenin]
- Effect on DOX toxicity in Lucena 1 (Lucena 1 cells [3]): did not cause any effect in DOX toxicity

Compound: CC[C@]1(O)C[C@@H]2CN(CCc3c([nH]c4ccccc34)[C@@](C(=O)OC)(c3cc4c(cc3OC)N(C)[C@H]3[C@@](O)(C(=O)OC)[C@H](OC(C)=O)[C@]5(CC)C=CCN6CC[C@]43[C@@H]65)C2)C1 [VLB, vinblastine sulfate, reference compound]
- pIC50 (Lucena 1 cells [4]; Homo sapiens, VLB alone): 5.60
- pIC50 (K562 cells [5]; Homo sapiens, VLB alone): 6.62

Compound: O=c1cc(-c2ccc(O)cc2)oc2cc(O)cc(O)c12 [Compound 10, apigenin]
- Effect on DOX toxicity in Lucena 1 (Lucena 1 cells [3]): did not cause any effect in DOX toxicity

Compound: (-)-sesamin
- Concentration from which accumulation of daunorubicin increased [6]: 50 µM

Compound: (±)-pinoresinol [Compound 14]
- P-gp presence in the outer membrane (P-gp [7]): No suppression of P-gp presence
- Reversal fold (RF) to VLB (Lucena 1 cells [4]; [16]): 60 and 60.20
- Increase in DOX-associated MFI (retention) vs control in efflux assay (P-gp [8]; 14 at 112 μM, 30 min in DOX-free medium): 1.8 fold
- Minimum effective concentration (MEC) in the DOX efflux assay (P-gp [8]; 30 min efflux): 56 µM
- Effect on DOX efflux in K562 (K562 cells [9]): Neither 14 nor verapamil showed any significant effect
- DOX accumulation in K562 (K562 cells [10]): No such increase in MFI
- Maximum stimulation of P-gp-ATPase activity (P-gp [11]): 29.49 ± 4.55%
- Maximum stimulation of P-gp-ATPase activity (P-gp [11]; listed as pinoresinol): 29%
- Effect on ATPase activity of control membranes (P-gp [11]; membranes from Sf9 cells expressing defective P-gp, up to 600 μM): no effect
- Reversal fold (RF) to VLB (K562 cells [5]; [16]): 9 and 9.63
- % of inhibition related to verapamil (DOX accumulation) (P-gp [12]; 0 h pre-incubation): 60%
- % of inhibition related to verapamil (DOX accumulation) (P-gp [12]; 0.5 h pre-incubation): 73%
- % of inhibition related to verapamil (DOX accumulation) (P-gp [12]; 1 h pre-incubation, verapamil 30 μM = maximum inhibition): 79%
- % of inhibition related to verapamil (DOX accumulation) (P-gp [12]; 48 h pre-incubation): 55%
- % inhibition with respect to verapamil (DOX accumulation) (P-gp [12]; 14 at 56 μM (MEC)): 80%
- Time course of DOX accumulation (P-gp [12]; 14 at 112 μM, at 20 min, compared with MFI in K562): fully restored the presence of DOX within Lucena 1 cells
- Minimum effective concentration (MEC) in the DOX accumulation assay (P-gp [12]; 1 h pre-incubation, 5 μM DOX 1 h): 56 µM
- Type of P-gp inhibition (Lineweaver-Burk double reciprocal plot of DOX retention) (P-gp [12]; 1 h with 14, then 1 h DOX): competitive inhibitor
- Increase in DOX-associated MFI vs ethanol control (P-gp [12]; 48 h pre-incubation, 14 at 112 μM, verapamil 30 μM, 5 μM DOX 1 h): 1.4 fold
- Increase in DOX accumulation (MFI) vs ethanol control (P-gp [12]; no pre-incubation (0 h), 14 at 112 μM, verapamil 30 μM, 5 μM DOX 1 h): 1.3 fold
- P-gp expression at the membrane surface vs control (P-gp [13]): less P-gp at the Lucena 1 cell membrane; also recorded: lower
- Minimum effective concentration (MEC) in the reversal assay (potentiation of DOX toxicity from) (Lucena 1 cells [3]; Lucena 1, DOX): 7 µM
- RF Lucena 1 (Lucena 1 cells [3]; compound at 28 μM (serial dilution), DOX): 3.4
- Effect on DOX sensitivity in K562 (K562 cells [2]): did not increase DOX sensitivity
- Enhancement of intracellular Rho 123 intensity in efflux assay (P-gp [14]): 1.5 fold
- Rho 123-associated MFI in K562 (K562 cells [15]): did not induce any increase

Compound: CC1(C)C=Cc2c(cc3c(c2O)C(=O)CC(c2ccc(O)cc2O)O3)O1 (stereo not drawn) [Compound 9, dalenin]
- Effect on DOX sensitivity in K562 (K562 cells [2]): caused a decrease in DOX IC50

Compound: COc1ccc(CCN(C)CCCC(C#N)(c2ccc(OC)c(OC)c2)C(C)C)cc1OC (stereo not drawn) [Verapamil, Verapamil hydrochloride, reference compound]
- DOX accumulation in K562 (K562 cells [10]): No such increase in MFI

Compound: O=c1c(O)c(-c2ccc(O)c(O)c2)oc2cc(O)cc(O)c12 [Compound 11, quercetin]
- Effect on DOX toxicity in Lucena 1 (Lucena 1 cells [3]): decreased DOX sensitivity
